From US10160986B2, “Chemoenzymatic synthesis of heparin and heparan sulfate analogs” (The Regents of the University of California, priority 2011, dated 2018) come the findings set out here.

As usually defined, the Km is the concentration of substrate that gives half-maximal velocity. For orientation: kcat means the number of substrate molecules converted per active site and unit of time at saturation. Usually kcat/Km stands for the turnover number divided by the Michaelis constant.

For one series, the target named is NahK_ATCC55813 (Bifidobacterium longum subsp. longum, UniProt E8MF12, D7V/R348H). The class given is biochemical. Details: made in house; host or cells: E. coli BL21(DE3). The note with it: substrate 1 mM. Here is the method: (§1) Substrates specificity assays. GlcNAc, GalNAc, and their derivatives (1 mM) were used as substrates in the presence of ATP (1 mM) and MgCl2 (5 mM) in a Tris-HCl buffer (pH 8.0, 200 mM) to analyze the substrate specificity of NahKs. Two concentrations (0.75 μM or 15 μM) of each NahK were used and the reactions were allowed to proceed for 10 min (for 0.75 μM NahK) or 30 min (for 15 μM NahK) at 37° C. […] All other conditions were the same as for GlcNAc, GalNAc, and their derivatives.
(§2) Capillary electrophoresis (CE) assays. Based on the detection of ADP and ATP in the reaction mixture by a UV detector, a capillary electrophoresis-based method was developed to directly measure the formation of ADP and N-acetylhexosamine-1-phosphate from ATP and N-acetylhexosamine for characterizing the activities of NahKs.

The next series has as its target T1, SpGalK (Streptococcus pneumoniae serotype 4, UniProt Q97NZ6).
T1 construct: made in house
Description: Kinase reaction monitored by CE (ATP to ADP), SpGalK. It counts as biochemical, Streptococcus pneumoniae TIGR4. The note with it: monosaccharide 15 mM, ATP 18 mM, 37° C. On the procedure: (§3) Capillary electrophoresis (CE) and thin-layer chromatograph (TLC) assays for kinase reactions. […] These conditions were similar to those used for preparative-scale synthesis. After 1 hr, 4 hr, and 24 hr, an aliquot of 8 μL was withdrawn from each reaction mixture, boiled in a water bath for 5 min and stored at −20° C. until being analyzed by capillary electrophoresis (CE) and TLC. For TLC analysis, 0.5 μL of each sample was directly spotted on TLC plates, developed using suitable developing solvents, and stained with anisaldehyde sugar stain. For CE analysis, 1.5 μL of each sample was diluted into 30 μL and subjected to CE analysis as described above for pH profile studies.

A further series concerns the target NahK_ATCC15697 (Bifidobacterium longum, UniProt B7GN78). In words: Substrate specificity CE assay, NahK_ATCC15697. The class given is biochemical, Bifidobacterium infantis. Conditions: substrate 1 mM. Here is the method: as §1, §2
The next series deals with T2, EcGalK (Escherichia coli, UniProt P0A6T3).
T2 construct: made in house
Description: Kinase reaction monitored by CE (ATP to ADP), EcGalK. It counts as biochemical. Conditions: monosaccharide 15 mM, ATP 18 mM, 37° C. Here is the method: as §3

In the next series the test system is PmHS2. Description: Small-scale PmHS2 donor substrate test by TLC. It counts as biochemical, Pasteurella multocida. Conditions: GlcAβ2AAMe 10 mM, donor 15 mM, MgCl2 10 mM, PmHS2 0.5 mg/mL, pH 7.5, 37° C., 12 hr. On the procedure:
Prior to applying the one-pot three-enzyme system shown in FIG. 16 to the preparative-scale synthesis of the disaccharides, UDP-GlcNAc and derivatives F17-1-F17-12 were tested as donor substrates for PmHS2 in small-scale reaction containing Tris-HCl buffer (100 mM, pH 7.5), GlcAβ2AAMe (10 mM), UDP-GlcNAc or a derivative (15 mM), MgCl2 (10 mM), and PmHS2 (0.5 mg/mL). The reactions were carried out at 37° C. for 12 hr and analyzed by thin layer chromatography (TLC).

Series [1] deals with T3, MBP-KfiA-His6 (Escherichia coli).
T3 construct: made in house; host or cells: E. coli BL21(DE3) co-expressing chaperone plasmid pGro7
In words: GlcNAcT donor substrate specificity of MBP-KfiA-His6 (Example 12). It counts as biochemical, E. coli. Conditions: acceptor GlcAβ2AA 1 mM, UDP-sugar 1 mM, MnCl2 10 mM, KfiA 2.8 μg μl^−1, 24 h, 37° C. Here is the method:
(§4) PmHS2, KfiA, and related fusion proteins were expressed, purified, and characterized as described in Example 1. Reactions with UDP-sugars were carried out in duplicate at 37° C. in MES (100 mM, pH 6.5) containing UDP-GlcNAc or one of its derivatives (1 mM), GlcAβ2AA (1 mM), MnCl2 (10 mM) and KfiA (2.8 μg μl^−1) or PmHS2 (1.1 μg μl^−1) for 24 h. The reaction mixtures were stopped by adding ice-cold 10% (v/v) acetonitrile to make 100-fold dilutions and the mixtures were analyzed by HPLC as described for the pH profile.
(§5) Substrate specificity of the GlcNAcT activities of MBP-KfiA-his6 and his6-PmHS2. […] The reactions were easily analyzed by high performance liquid chromatography (HPLC) equipped with a fluorescence detector using an excitation wavelength of 315 nm and an emission wavelength of 400 nm to determine the ratio of the fluorescent disaccharide product formed and the fluorescent GlcAβ2AA acceptor.

The test system of a further series is His6-PmHS2. In words: GlcNAcT donor substrate specificity of His6-PmHS2 (Example 12). Conditions: acceptor GlcAβ2AA 1 mM, UDP-sugar 1 mM, MnCl2 10 mM, PmHS2 1.1 μg μl^−1, 24 h, 37° C. It counts as biochemical, Pasteurella multocida. On the procedure:
as §4, §5

Series [2] relates to Nc1ncnc2c1ncn2[C@@H]1O[C@H](COP(=O)(O)OP(=O)(O)OP(=O)(O)O)[C@@H](O)[C@H]1O. Description: purified protein, by the assay type. The note with it: one varied, other fixed at 1 mM, 37° C., 10 min, pH 7.5.
Description: (§6) Kinetics by CE assays. Reactions were carried out in duplicate at 37° C. for 10 min in a total volume of 20 μL in Tris-HCl buffer (200 mM, pH 7.5) containing MgCl2 (1 mM), ATP, GlcNAc or GalNAc, and NahK (0.25 μM when GlcNAc and ATP were used as substrates, 0.5 μM when GalNAc and ATP were used as substrates). Apparent kinetic parameters were obtained by varying the ATP concentration from 0.1-5.0 mM (0.1 mM, 0.2 mM, 0.4 mM, 1 mM, 2 mM, and 5 mM) at a fixed concentration of GlcNAc or GalNAc (1 mM), or varying the concentration of GlcNAc or GalNAc (0.1 mM, 0.2 mM, 0.4 mM, 1 mM, 2 mM, and 5 mM) at a fixed concentration of ATP (1 mM) and fitting the data to the Michaelis-Menten equation using Grafit 5.0.
Series [3] deals with CC(=O)N[C@H]1C(O)O[C@H](CO)[C@H](O)[C@@H]1O. In words: purified protein, by the assay type. Conditions: other: substrates ATP and GalNAc, one varied, other fixed at 1 mM, 37° C., 10 min, pH 7.5.
Description: as §6
Series [4] relates to CC(=O)N[C@H]1C(O)O[C@H](CO)[C@@H](O)[C@@H]1O. In words: purified protein, by the assay type. The note with it: other: substrates ATP and GlcNAc, one varied, other fixed at 1 mM, 37° C., 10 min, pH 7.5.
Description: as §6
The mark [5] stands for this setting: 0.75 μM enzyme, 10 min at 37° C., ATP 1 mM.
The mark [6] stands for this setting: 15 μM enzyme, 30 min at 37° C., ATP 1 mM (Table 2).
Setting [7] is: other: substrates ATP and GalNAc.
The mark [8] stands for this setting: other: substrates ATP and GlcNAc.

Read-outs that look alike come from different tables or passages of the source.

Regarding `[N-]=[N+]=NC1C(O)OC(CO)[C@H](O)C1O` (some centres unmarked) [GalN3], the “Percentage Conversion” value on NahK_ATCC55813 (setting [5]) was 0%; at NahK_ATCC55813 (setting [6]) it was 4.3 ± 0.1%; on NahK_ATCC15697 (setting [5]), 0%; at NahK_ATCC15697 (setting [6]), 7.6 ± 0.1%. Further, the “ATP Conversion” value on SpGalK (1 hr) is reported as 45.7%; on SpGalK (4 hr), 79.0%; at SpGalK (24 hr), 81.2%.
Turning to `OCC1OC(O)CC(O)[C@H]1O` (some centres unmarked) [T6-2 2-deoxyGal, 2-deoxyGal], the “ATP Conversion” value is recorded as 80.3% on SpGalK (1 hr), 89.5% at SpGalK (4 hr), 78.5% at EcGalK (1 hr) and 87.6% on EcGalK (4 hr).
In the case of `[N-]=[N+]=N[C@H]1[C@@H](OP(=O)(O)OP(=O)(O)OC[C@H]2O[C@@H](n3ccc(=O)[nH]c3=O)[C@H](O)[C@@H]2O)O[C@H](CO)[C@@H](O)[C@@H]1O` [Compound F17-6, Uridine 5′-diphospho-2-azido-2-deoxy-α-D-glucopyranoside], in the series on PmHS2, the “donor substrate for PmHS2” value is reported as “did not serve as donor substrates”. For the same molecule, the “donor substrate for MBP-KfiA-His6” value in [1] is given as “not acceptable donor substrates”. Also, in the series on His6-PmHS2, the “donor substrate for the α1-4GlcNAcT activity of His6-PmHS2” value (“donor substrate … of His6-PmHS2” below) is on record as “not acceptable donor substrates”.
As for `N[C@H]1C(O)O[C@H](CO)[C@H](O)[C@@H]1O` (some centres unmarked) [T6-3 GalNH2, galactosamine], the “ATP Conversion” value on EcGalK (1 hr) came to 90.2%.
Regarding “NahK_ATCC15697 (Bifidobacterium longum subsp. infantis ATCC 15697 = JCM 1222 = DSM 20088)”, the Km in series [2] (setting [7]) came to 80 ± 30 µM; in series [2] (setting [8]) it was 100 ± 30 µM; in [3], 90 ± 50 µM; in series [4], 60 ± 10 µM. For the same molecule, the kcat in series [2] (setting [7]) stood at 0.38 ± 0.02 s⁻¹; in series [2] (setting [8]) it was 1.1 ± 0.1 s⁻¹; in [3] it was 0.46 ± 0.07 s⁻¹; in series [4] it was 0.95 ± 0.01 s⁻¹. For the same molecule, the kcat/Km amounted to 4800 M⁻¹ s⁻¹ in [2] (setting [7]), 11000 M⁻¹ s⁻¹ in series [2] (setting [8]), 5100 M⁻¹ s⁻¹ in series [3] and 15800 M⁻¹ s⁻¹ in series [4].
Turning to `CC(=O)N[C@H]1[C@@H](OP(=O)(O)OP(=O)(O)OC[C@H]2O[C@@H](n3ccc(=O)[nH]c3=O)[C@H](O)[C@@H]2O)O[C@H](CNC(=O)CO)[C@@H](O)[C@@H]1O` [Compound F17-9, Uridine 5′-diphospho-2-acetamido-6-hydroxyacetamido-2,6-dideoxy-α-D-glucopyranoside], in the series on PmHS2, the “donor substrate for PmHS2” value was “tolerable donor substrates”. For the same molecule, the “donor substrate for MBP-KfiA-His6” value in [1] is “not for MBPKfiA-His6”. Further, the “donor substrate … of His6-PmHS2” value in the series with His6-PmHS2 is recorded as “tolerable donor substrates for His6-PmHS2”.
For the molecule `CC(=O)NC1C(O)OC(CO)[C@H](O)[C@@H]1O` (some centres unmarked) [GalNAc, N-acetylgalactosamine], the “Percentage Conversion” value at NahK_ATCC55813 (setting [5]) is given as 19.9 ± 0.1%; at NahK_ATCC15697 (setting [5]) it was 12.5 ± 0.1%. Further, the “ATP Conversion” value was 11.8% on SpGalK (1 hr), 24.7% on SpGalK (4 hr) and 69.5% at SpGalK (24 hr).
As to “NahK_ATCC55813 (Bifidobacterium longum subsp. longum JCM 1217; D7V/R348H)”, in series [3], the Km came to 80 ± 30 µM, the kcat stood at 0.57 ± 0.04 s⁻¹ and the kcat/Km turned out to be 7100 M⁻¹ s⁻¹. Further, in [4], the Km was 60 ± 10 µM, the kcat stood at 1.1 ± 0.1 s⁻¹ and the kcat/Km was found to be 18300 M⁻¹ s⁻¹.
Regarding `CC(=O)NC1C(OP(=O)(O)OP(=O)(O)OCC2OC(n3ccc(=O)[nH]c3=O)C(O)C2O)OC(CNC(=O)CN=[N+]=[N-])C(O)C1O` [Compound F17-11, Uridine 5′-diphospho-2-acetamido-6-azidoacetamido-2,6-dideoxy-α-D-glucopyranoside], the “donor substrate for PmHS2” value in the series with PmHS2 is “did not serve as donor substrates”. Further, the “donor substrate for MBP-KfiA-His6” value in series [1] was “not for MBPKfiA-His6”. The “donor substrate … of His6-PmHS2” value in the series with His6-PmHS2 is reported as “tolerable donor substrates for His6-PmHS2”.
For `NC1C(OP(=O)(O)OP(=O)(O)OCC2OC(n3ccc(=O)[nH]c3=O)C(O)C2O)OC(CO)C(O)C1O` [Compound F17-5, Uridine 5′-diphospho-2-amino-2-deoxy-α-D-glucopyranoside], in that order: “did not serve as donor substrates”, “not acceptable donor substrates” and “not acceptable donor substrates”.
